According to US9181172B2, “Rhein conjugates, preparation method thereof and their uses in producing medicines for treating diabetic nephrosis, intestinal adhesion and osteoarthritis” (priority 2005, dated 2015):

How the values were obtained:
Format in all cases: in vivo
[1] = tested on: rabbits' ear marginal veins; experiment: Safety of hydro-acupuncture injection: irritation of rabbits' ear marginal vein; details: slowly into the vein every two days, three times
Excerpt: In rabbits' ear marginal vein aseptic operation, rhein sodium salt, rhein arginine conjugates and 0.9% sodium chloride injection liquid were slowly filled into the veins respectively every two days for three consecutive times.

mice [2] = experiment: Intestinal propulsion in mice; details: intravenous injection
Description: Fifty mice, male, weighting from 18 to 22 g, were randomly divided into five groups, namely, model control group, domperidone group, rhein sodium group, rhein glucosamine large dose group and low dose group.
Each group has 10 mice respectively. The mice were fasted, but water was not prohibited, and then administered with medicines by intravenous injection. After that, tests were carried on immediately according to the methods in the literature[Xu Shuyun, Methodology in Pharmacological Experiment (the 3rd version): 1313]. The intestinal propulsive rates were calculated, and t test was used for the intergroup comparison.

rats [3] = experiment: Formation of cotton ball granuloma in rats (Example 59 Test 2)
Description: Rats were randomly divided into five groups (model control group, indomethacin group, rhein glucosamine large dose group and low dose group and rhein sodium group). Each group included 10 rats, and built models according to the method in the literature [Xu Shuyun, Methodology in Pharmacological Experiment (the 3rd version): 918]. The rats were administered by medicines from the day when starting the operation. […] The rats were killed in two weeks, and tests were performed according to the methods in the literature, the net weight of granulation was calculated, and t test was used for the intergroup comparison.

rats [4] = experiment: Intestinal adhesion in rats; details: for Rating of adhesion degree 0: number of 12 rats with completely no adhesion; for Rating of adhesion degree 0 / Rating of adhesion degree III / Rating of adhesion degree I / Rating of adhesion degree IV / Rating of adhesion degree II: 7th day; for Rating of adhesion degree III: number of 12 rats with more than two adhering zones; for Rating of adhesion degree I: number of 12 rats with one adhering zone; for Rating of adhesion degree IV: number of 12 rats with organs adhering to abdominal wall directly; for Rating of adhesion degree II: number of 12 rats with two adhering zones
Description: Rats were fasted for 12 h and models were built according to the methods in the literature [Xu Shuyun, Methodology in Pharmacological Experiment (the 3rd version): 1335]. The rats were randomly divided into five groups, namely, model control group, dexamethasone group, rhein sodium group, rhein glucosamine large dose group and low dose group. Each group included 12 rats. […] The rats of the model group were administered with the same volume of NS, while the rats of the positive control group were administered with dexamethasone, administered once every two days, dose: 10 mg/kg. The administration volume was the same as the treatment group. The rats were killed on the 7th day and carried on laparotomy. Adhesion degree was classified and scored respectively. The classification and score of the observed index-adhesion degree can refer to the five-grade classification method prepared by Nair, and determine the classification standard, see Schedule 13. Intestinal adhesion classification adopts Ridit analysis. The test results are as follows (Table 14): […]

mice [5] = experiment: Capillary permeability of mice
Description: Each group has 12 mice, administration: 0.20 ml/10 g. Mice in the model control group were administrated with isovolumic physiologic saline.

rats [6] = experiment: Carrageenan-induced acute pleurisy exudation and leukoplania in rats; details: intraperitoneal 10 mg/kg, four hours after carrageenan
Description: Forty male rats of 200±20 g weight were selected and divided into five groups, namely, model control group, indomethacin group, rhein sodium group, rhein glucosamine large dose group and small dose group. Eight rats for each group. The rats were administered with medicines by intraperitoneal administration, one hour later, the rats were induced with acute pleurisy by carrageenan according to the method in the literature [Xu Shuyun, Methodology in Pharmacological Experiment (the 3rd version): 916]. Four hours later, the rats were killed and the volume of pleural effusion and total white cell count were measured.

rats [7] = experiment: Formation of granuloma in rats (arthritis example, test 4); details: 10 mg/kg intramuscular, two weeks
Description: Rats were randomly divided into five groups (model control group, indomethacin group, rhein glucosamine large dose group and small dose group and rhein sodium group). Each group has 10 […]. According to the method in the literature [Xu Shuyun, Methodology in Pharmacological Experiment (the 3rd version): 918], the models were built, and the rats were administered with medicines since the day when starting operations. […] Two weeks later, the rats were killed and test was carried on according to the method in the literature. The net weight of granulation was calculated, and t test was used for the intergroup comparison.

Rhein Arginine Conjugate was tested, and the “biopsy of rabbits' ear marginal vein” value [1] was “normal without endothelial injuries, thrombosis and other pharmacological change”, the “irritation on rabbits' ear marginal veins” value ([1]; vs 0.9% sodium chloride) was “no irritation” and the Propulsive rate (mice [2]; dosage 12 mg/kg) was 53.81 ± 8.9 %. The Propulsive rate (mice [2]; dosage 24 mg/kg) was 66.47 ± 9.7 %, the “inhibition of the formation of cotton ball granuloma compared with the model group” value (rats [3]; ig, large dose and low dose groups, p<0.01) was “significant effect on the inhibition” and the “abdominal adhesion ratings compared with the control group” value (rats [4]; large dose and low dose groups, p<0.05) was “statistical significances”. The “Rating of adhesion degree 0” value (rats [4]; 6 mg/kg once a day) was 1, the “Rating of adhesion degree 0” value (rats [4]; 12 mg/kg once a day) was 3 and the “Rating of adhesion degree III” value (rats [4]; 6 mg/kg once a day) was 3. The “Rating of adhesion degree III” value (rats [4]; 12 mg/kg once a day) was 2, the “Rating of adhesion degree I” value (rats [4]; 6 mg/kg once a day) was 4 and the “Rating of adhesion degree I” value (rats [4]; 12 mg/kg once a day) was 5. The “Rating of adhesion degree IV” value (rats [4]; 6 mg/kg once a day) was 1, the “Rating of adhesion degree IV” value (rats [4]; 12 mg/kg once a day) was 0 and the “Rating of adhesion degree II” value (rats [4]; 6 mg/kg once a day) was 3. For the same compound, the “Rating of adhesion degree II” value (rats [4]; 12 mg/kg once a day) was 2, the absorbance value (mice [5]; dosage 12 mg/kg) was 0.476 ± 0.096 and the absorbance value (mice [5]; dosage 24 mg/kg) was 0.455 ± 0.105.
For COc1ccc2c(c1)c(CC(=O)O)c(C)n2C(=O)c1ccc(Cl)cc1 [indomethacin], the “net weight of granulation” value (rats [3]; 10 mg/kg intramuscular, two weeks) was 12.21 ± 2.43 mg, the “Volume of exudation fluid” value (rats [6]) was 0.26 ± 0.11 and the WBC (rats [6]) was 3.01 ± 1.59 ×109/L. For the same compound, the “Net weight of granulation” value (rats [7]) was 12.17 ± 2.49 mg.
